Test system: 2,985 participants free of prevalent diabetes at baseline
Experiment: Cardiovascular Health Study: plasma phospholipid fatty acids and incident diabetes mellitus (Cox proportional-hazards)
Assay type: in vivo, human
Conditions: per each higher SD of the plasma phospholipid fatty acid; multivariable-adjusted (covariates as in Table 4)
Protocol: Plasma phospholipid fatty acids, anthropometry, blood lipids, inflammatory markers, and glucose-insulin levels were measured at baseline using standardized methods. Independent determinants of trans-palmitoleate and relationships of trans-palmitoleate with metabolic risk factors were investigated using multivariable-adjusted linear regression.
Multivariable model adjusted for age (years), gender (male/female), race (white/nonwhite), education (<high school, high school, some college, college graduate), enrollment site (four sites), smoking (never, former, current), body mass index (kg/m^2), waist circumference (cm), coronary heart disease (yes/no), physical activity (kcal/wk), alcohol use (six categories), and consumption of carbohydrate (% energy), protein (% energy), red meat (servings/week), whole-fat dairy foods (6 categories), low-fat dairy foods (five categories), and total energy (kcal/d).
Participants were followed by means of annual examinations for 10 years with interim and subsequent 6-month telephone contacts. Ives et al., 5 Ann. Epidemiol. […] At each visit, detailed medication information was obtained using medication inventories. At baseline, study interviewers visited participants in their homes and asked to see all prescription medications they had taken in the previous 2 weeks. At follow-up exams, participants brought to clinic all prescription medications taken in the previous 2 weeks. Drug names, doses, and frequencies were coded according to prescription medication Medispan files.
Relationships between phospholipid fatty acids were evaluated using Spearman correlation. Trans-palmitoleate levels were evaluated in sex-specific quintiles as indicator variables and continuously per SD difference. Independent demographic and lifestyle determinants of trans-palmitoleate were evaluated using multivariable-adjusted linear regression with trans-palmitoleate as the dependent variable. Multivariable-adjusted relationships of trans-palmitoleate with metabolic risk factors (transformed for normality as appropriate) were evaluated using linear regression with trans-palmitoleate as the independent variable. Quintiles were evaluated as ordinal variables to assess trend, to assess effect modification using the Wald test for a multiplicative interaction term, and to assess differences in baseline characteristics by means of linear or logistic regression. […] To minimize potential confounding, covariates were selected based on biologic interest, being well-established risk factors for metabolic risk, or associations with exposures/outcomes in the present cohort. […] Analyses were performed using Stata10.1 (College Station, Tex.), two-tailed alpha=0.05.

CCCCCCCCCCCCCCC(=O)O [15:0, pentadecanoic acid, reference compound]
RR of diabetes per SD: 1.01

CCCCCCCCCCCCCCCCC(=O)O [17:0, reference compound]
RR of diabetes per SD: 0.98

CCCCCC/C=C/CCCCCCCCCC(=O)O [Vaccenic acid, vaccenic acid, reference compound]
RR of diabetes per SD: 0.89
